# Assay results from ChEMBL document CHEMBL2429768, “Eco-friendly synthesis and antimicrobial activities of substituted-5-(1H-indol-3-yl)methylene)-2,2-dimethyl-1,3-dioxane-4,6-dione derivatives” (2013).
# Experiments:
# Type in all cases: functional
# Escherichia coli [1] = assay: Antibacterial activity against Escherichia coli ATCC 8739 at 500 ug/ml after 24 hrs by agar well diffusion method; conditions: ATCC 8739, 24 h, read-out: DIZ
# Bacillus subtilis [2] = assay: Antibacterial activity against Bacillus subtilis at 200 ug/ml after 24 hrs by agar well diffusion method; conditions: read-out: DIZ
# Rhizoctonia solani [3] = assay: Antifungal activity against Rhizoctonia solani at 300 ug/ml after 72 hrs by agar well diffusion method; conditions: read-out: DIZ
# Klebsiella pneumoniae [4] = assay: Antibacterial activity against Klebsiella pneumoniae at 300 ug/ml after 24 hrs by agar well diffusion method; conditions: read-out: DIZ
# Escherichia coli [5] = assay: Antibacterial activity against Escherichia coli ATCC 8739 at 300 ug/ml after 24 hrs by agar well diffusion method; conditions: ATCC 8739, 24 h, read-out: DIZ
# Bacillus subtilis [6] = assay: Antibacterial activity against Bacillus subtilis at 100 ug/ml after 24 hrs by agar well diffusion method; conditions: read-out: DIZ
# Klebsiella pneumoniae [7] = assay: Antibacterial activity against Klebsiella pneumoniae after 24 hrs by agar well diffusion method
# Fusarium oxysporum [8] = assay: Antifungal activity against Fusarium oxysporum after 72 hrs by agar well diffusion method
# Staphylococcus aureus [9] = assay: Antibacterial activity against Staphylococcus aureus ATCC 6538 at 100 ug/ml after 24 hrs by agar well diffusion method; conditions: ATCC 6538, 24 h, read-out: DIZ
# Bacillus subtilis [10] = assay: Antibacterial activity against Bacillus subtilis after 24 hrs by agar well diffusion method
# Staphylococcus aureus [11] = assay: Antibacterial activity against Staphylococcus aureus ATCC 6538 at 300 ug/ml after 24 hrs by agar well diffusion method; conditions: ATCC 6538, 24 h, read-out: DIZ
# Aspergillus flavus [12] = assay: Antifungal activity against Aspergillus flavus at 200 ug/ml after 72 hrs by agar well diffusion method; conditions: read-out: DIZ
# Fusarium oxysporum [13] = assay: Antifungal activity against Fusarium oxysporum at 500 ug/ml after 72 hrs by agar well diffusion method; conditions: read-out: DIZ
# Staphylococcus aureus [14] = assay: Antibacterial activity against Staphylococcus aureus ATCC 6538 at 50 ug/ml after 24 hrs by agar well diffusion method; conditions: ATCC 6538, 24 h, read-out: DIZ
# Aspergillus flavus [15] = assay: Antifungal activity against Aspergillus flavus after 72 hrs by agar well diffusion method
# Rhizoctonia solani [16] = assay: Antifungal activity against Rhizoctonia solani at 500 ug/ml after 72 hrs by agar well diffusion method; conditions: read-out: DIZ
# Escherichia coli [17] = assay: Antibacterial activity against Escherichia coli ATCC 8739 at 200 ug/ml after 24 hrs by agar well diffusion method; conditions: ATCC 8739, 24 h, read-out: DIZ
# Staphylococcus aureus [18] = assay: Antibacterial activity against Staphylococcus aureus ATCC 6538 after 24 hrs by agar well diffusion method; conditions: ATCC 6538, 24 h
# Escherichia coli [19] = assay: Antibacterial activity against Escherichia coli ATCC 8739 after 24 hrs by agar well diffusion method; conditions: ATCC 8739, 24 h
# Fusarium oxysporum [20] = assay: Antifungal activity against Fusarium oxysporum at 50 ug/ml after 72 hrs by agar well diffusion method; conditions: read-out: DIZ
# Aspergillus flavus [21] = assay: Antifungal activity against Aspergillus flavus at 50 ug/ml after 72 hrs by agar well diffusion method; conditions: read-out: DIZ
# Aspergillus niger [22] = assay: Antifungal activity against Aspergillus niger at 50 ug/ml after 72 hrs by agar well diffusion method; conditions: read-out: DIZ
# Aspergillus flavus [23] = assay: Antifungal activity against Aspergillus flavus at 500 ug/ml after 72 hrs by agar well diffusion method; conditions: read-out: DIZ
# Aspergillus niger [24] = assay: Antifungal activity against Aspergillus niger at 500 ug/ml after 72 hrs by agar well diffusion method; conditions: read-out: DIZ
# Escherichia coli [25] = assay: Antibacterial activity against Escherichia coli ATCC 8739 at 50 ug/ml after 24 hrs by agar well diffusion method; conditions: ATCC 8739, 24 h, read-out: DIZ
# Bacillus subtilis [26] = assay: Antibacterial activity against Bacillus subtilis at 50 ug/ml after 24 hrs by agar well diffusion method; conditions: read-out: DIZ
# Fusarium oxysporum [27] = assay: Antifungal activity against Fusarium oxysporum at 300 ug/ml after 72 hrs by agar well diffusion method; conditions: read-out: DIZ
# Fusarium oxysporum [28] = assay: Antifungal activity against Fusarium oxysporum at 100 ug/ml after 72 hrs by agar well diffusion method; conditions: read-out: DIZ
# Klebsiella pneumoniae [29] = assay: Antibacterial activity against Klebsiella pneumoniae at 50 ug/ml after 24 hrs by agar well diffusion method; conditions: read-out: DIZ
# Aspergillus flavus [30] = assay: Antifungal activity against Aspergillus flavus at 100 ug/ml after 72 hrs by agar well diffusion method; conditions: read-out: DIZ
# Rhizoctonia solani [31] = assay: Antifungal activity against Rhizoctonia solani at 100 ug/ml after 72 hrs by agar well diffusion method; conditions: read-out: DIZ
# Rhizoctonia solani [32] = assay: Antifungal activity against Rhizoctonia solani at 50 ug/ml after 72 hrs by agar well diffusion method; conditions: read-out: DIZ
# Staphylococcus aureus [33] = assay: Antibacterial activity against Staphylococcus aureus ATCC 6538 at 500 ug/ml after 24 hrs by agar well diffusion method; conditions: ATCC 6538, 24 h, read-out: DIZ
# Aspergillus niger [34] = assay: Antifungal activity against Aspergillus niger at 300 ug/ml after 72 hrs by agar well diffusion method; conditions: read-out: DIZ
# Rhizoctonia solani [35] = assay: Antifungal activity against Rhizoctonia solani at 200 ug/ml after 72 hrs by agar well diffusion method; conditions: read-out: DIZ
# Escherichia coli [36] = assay: Antibacterial activity against Escherichia coli ATCC 8739 at 100 ug/ml after 24 hrs by agar well diffusion method; conditions: ATCC 8739, 24 h, read-out: DIZ
# Aspergillus flavus [37] = assay: Antifungal activity against Aspergillus flavus at 300 ug/ml after 72 hrs by agar well diffusion method; conditions: read-out: DIZ
# Klebsiella pneumoniae [38] = assay: Antibacterial activity against Klebsiella pneumoniae at 500 ug/ml after 24 hrs by agar well diffusion method; conditions: read-out: DIZ
# Klebsiella pneumoniae [39] = assay: Antibacterial activity against Klebsiella pneumoniae at 100 ug/ml after 24 hrs by agar well diffusion method; conditions: read-out: DIZ
# Klebsiella pneumoniae [40] = assay: Antibacterial activity against Klebsiella pneumoniae at 200 ug/ml after 24 hrs by agar well diffusion method; conditions: read-out: DIZ
# Aspergillus niger [41] = assay: Antifungal activity against Aspergillus niger at 100 ug/ml after 72 hrs by agar well diffusion method; conditions: read-out: DIZ
# Rhizoctonia solani [42] = assay: Antifungal activity against Rhizoctonia solani after 72 hrs by agar well diffusion method
# Fusarium oxysporum [43] = assay: Antifungal activity against Fusarium oxysporum at 200 ug/ml after 72 hrs by agar well diffusion method; conditions: read-out: DIZ
# Bacillus subtilis [44] = assay: Antibacterial activity against Bacillus subtilis at 500 ug/ml after 24 hrs by agar well diffusion method; conditions: read-out: DIZ
# Staphylococcus aureus [45] = assay: Antibacterial activity against Staphylococcus aureus ATCC 6538 at 200 ug/ml after 24 hrs by agar well diffusion method; conditions: ATCC 6538, 24 h, read-out: DIZ
# Aspergillus niger [46] = assay: Antifungal activity against Aspergillus niger at 200 ug/ml after 72 hrs by agar well diffusion method; conditions: read-out: DIZ
# Bacillus subtilis [47] = assay: Antibacterial activity against Bacillus subtilis at 300 ug/ml after 24 hrs by agar well diffusion method; conditions: read-out: DIZ
# Aspergillus niger [48] = assay: Antifungal activity against Aspergillus niger after 72 hrs by agar well diffusion method
compound,measurement,setting,value
COc1ccc2[nH]cc(C=C3C(=O)OC(C)(C)OC3=O)c2c1,zone of inhibition at 500 µg/mL,Escherichia coli [1],33 mm
same,zone of inhibition at 200 µg/mL,Bacillus subtilis [2],11 mm
same,zone of inhibition at 300 µg/mL,Rhizoctonia solani [3],24 mm
same,zone of inhibition at 300 µg/mL,Klebsiella pneumoniae [4],25 mm
same,zone of inhibition at 300 µg/mL,Escherichia coli [5],22 mm
same,zone of inhibition at 100 µg/mL,Bacillus subtilis [6],9 mm
same,MIC,Klebsiella pneumoniae [7],10 µg/mL
same,MIC,Fusarium oxysporum [8],25 µg/mL
same,zone of inhibition at 100 µg/mL,Staphylococcus aureus [9],12 mm
same,MIC,Bacillus subtilis [10],20 µg/mL
same,zone of inhibition at 300 µg/mL,Staphylococcus aureus [11],18 mm
same,zone of inhibition at 200 µg/mL,Aspergillus flavus [12],12 mm
same,zone of inhibition at 500 µg/mL,Fusarium oxysporum [13],30 mm
same,zone of inhibition at 50 µg/mL,Staphylococcus aureus [14],8 mm
same,MIC,Aspergillus flavus [15],35 µg/mL
same,zone of inhibition at 500 µg/mL,Rhizoctonia solani [16],31 mm
same,zone of inhibition at 200 µg/mL,Escherichia coli [17],17 mm
same,MIC,Staphylococcus aureus [18],20 µg/mL
same,MIC,Escherichia coli [19],10 µg/mL
same,zone of inhibition at 50 µg/mL,Fusarium oxysporum [20],10 mm
same,zone of inhibition at 50 µg/mL,Aspergillus flavus [21],5 mm
same,zone of inhibition at 50 µg/mL,Aspergillus niger [22],7 mm
same,zone of inhibition at 500 µg/mL,Aspergillus flavus [23],22 mm
same,zone of inhibition at 500 µg/mL,Aspergillus niger [24],24 mm
same,zone of inhibition at 50 µg/mL,Escherichia coli [25],10 mm
same,zone of inhibition at 50 µg/mL,Bacillus subtilis [26],4 mm
same,zone of inhibition at 300 µg/mL,Fusarium oxysporum [27],24 mm
same,zone of inhibition at 100 µg/mL,Fusarium oxysporum [28],15 mm
same,zone of inhibition at 50 µg/mL,Klebsiella pneumoniae [29],11 mm
same,zone of inhibition at 100 µg/mL,Aspergillus flavus [30],9 mm
same,zone of inhibition at 100 µg/mL,Rhizoctonia solani [31],15 mm
same,zone of inhibition at 50 µg/mL,Rhizoctonia solani [32],10 mm
same,zone of inhibition at 500 µg/mL,Staphylococcus aureus [33],28 mm
same,zone of inhibition at 300 µg/mL,Aspergillus niger [34],14 mm
same,zone of inhibition at 200 µg/mL,Rhizoctonia solani [35],19 mm
same,zone of inhibition at 100 µg/mL,Escherichia coli [36],15 mm
same,zone of inhibition at 300 µg/mL,Aspergillus flavus [37],13 mm
same,zone of inhibition at 500 µg/mL,Klebsiella pneumoniae [38],34 mm
same,zone of inhibition at 100 µg/mL,Klebsiella pneumoniae [39],16 mm
same,zone of inhibition at 200 µg/mL,Klebsiella pneumoniae [40],20 mm
same,zone of inhibition at 100 µg/mL,Aspergillus niger [41],12 mm
same,MIC,Rhizoctonia solani [42],25 µg/mL
same,zone of inhibition at 200 µg/mL,Fusarium oxysporum [43],18 mm
same,zone of inhibition at 500 µg/mL,Bacillus subtilis [44],22 mm
same,zone of inhibition at 200 µg/mL,Staphylococcus aureus [45],15 mm
same,zone of inhibition at 200 µg/mL,Aspergillus niger [46],15 mm
same,zone of inhibition at 300 µg/mL,Bacillus subtilis [47],14 mm
same,MIC,Aspergillus niger [48],30 µg/mL
CCn1cc(C=C2C(=O)OC(C)(C)OC2=O)c2ccccc21,zone of inhibition at 500 µg/mL,Escherichia coli [1],30 mm
same,zone of inhibition at 200 µg/mL,Bacillus subtilis [2],11 mm
same,zone of inhibition at 300 µg/mL,Rhizoctonia solani [3],21 mm
same,zone of inhibition at 300 µg/mL,Klebsiella pneumoniae [4],23 mm
same,zone of inhibition at 300 µg/mL,Escherichia coli [5],20 mm
same,zone of inhibition at 100 µg/mL,Bacillus subtilis [6],9 mm
same,MIC,Klebsiella pneumoniae [7],15 µg/mL
same,MIC,Fusarium oxysporum [8],35 µg/mL
same,zone of inhibition at 100 µg/mL,Staphylococcus aureus [9],10 mm
same,MIC,Bacillus subtilis [10],30 µg/mL
same,zone of inhibition at 300 µg/mL,Staphylococcus aureus [11],18 mm
same,zone of inhibition at 200 µg/mL,Aspergillus flavus [12],12 mm
same,zone of inhibition at 500 µg/mL,Fusarium oxysporum [13],29 mm
same,zone of inhibition at 50 µg/mL,Staphylococcus aureus [14],6 mm
same,MIC,Aspergillus flavus [15],40 µg/mL
same,zone of inhibition at 500 µg/mL,Rhizoctonia solani [16],29 mm
same,zone of inhibition at 200 µg/mL,Escherichia coli [17],16 mm
same,MIC,Staphylococcus aureus [18],25 µg/mL
same,MIC,Escherichia coli [19],15 µg/mL
same,zone of inhibition at 50 µg/mL,Fusarium oxysporum [20],7 mm
same,zone of inhibition at 50 µg/mL,Aspergillus flavus [21],4 mm
same,zone of inhibition at 50 µg/mL,Aspergillus niger [22],6 mm
same,zone of inhibition at 500 µg/mL,Aspergillus flavus [23],23 mm
same,zone of inhibition at 500 µg/mL,Aspergillus niger [24],25 mm
same,zone of inhibition at 50 µg/mL,Escherichia coli [25],8 mm
same,zone of inhibition at 50 µg/mL,Bacillus subtilis [26],4 mm
same,zone of inhibition at 300 µg/mL,Fusarium oxysporum [27],21 mm
same,zone of inhibition at 100 µg/mL,Fusarium oxysporum [28],12 mm
same,zone of inhibition at 50 µg/mL,Klebsiella pneumoniae [29],9 mm
same,zone of inhibition at 100 µg/mL,Aspergillus flavus [30],9 mm
same,zone of inhibition at 100 µg/mL,Rhizoctonia solani [31],12 mm
same,zone of inhibition at 50 µg/mL,Rhizoctonia solani [32],7 mm
same,zone of inhibition at 500 µg/mL,Staphylococcus aureus [33],25 mm
same,zone of inhibition at 300 µg/mL,Aspergillus niger [34],18 mm
same,zone of inhibition at 200 µg/mL,Rhizoctonia solani [35],16 mm
same,zone of inhibition at 100 µg/mL,Escherichia coli [36],13 mm
same,zone of inhibition at 300 µg/mL,Aspergillus flavus [37],15 mm
same,zone of inhibition at 500 µg/mL,Klebsiella pneumoniae [38],31 mm
same,zone of inhibition at 100 µg/mL,Klebsiella pneumoniae [39],14 mm
same,zone of inhibition at 200 µg/mL,Klebsiella pneumoniae [40],18 mm
same,zone of inhibition at 100 µg/mL,Aspergillus niger [41],10 mm
same,MIC,Rhizoctonia solani [42],35 µg/mL
same,zone of inhibition at 200 µg/mL,Fusarium oxysporum [43],16 mm
same,zone of inhibition at 500 µg/mL,Bacillus subtilis [44],22 mm
same,zone of inhibition at 200 µg/mL,Staphylococcus aureus [45],14 mm
same,zone of inhibition at 200 µg/mL,Aspergillus niger [46],14 mm
same,zone of inhibition at 300 µg/mL,Bacillus subtilis [47],14 mm
same,MIC,Aspergillus niger [48],40 µg/mL
